# Biological target: T1, human TRPV4 (Homo sapiens, UniProt Q9HBA0)
# T1 construct: expressed in transfected cells; host or cells: HEK-293-MSR-II cells transduced with 1% BacMam virus
# Experiment: Ligand-gated assay (Fluo4 calcium, FLIPR; inhibition of agonist-induced activation)
# Assay type: cell-based
# Conditions: HEK-293-MSR-II cells transduced with BacMam human TRPV4; agonist at EC80
# Outline: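 HEK-293-MSR-II cells BacMam-transduced with human TRPV4, loaded with 2 uM Fluo-4. Compound preincubated 10 min at room temperature in HBSS pH 7.4 plus 0.01% Chaps, then agonist added at its EC80. Inhibition of agonist-evoked calcium rise read on FLIPR; IC50 reported.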
# T1 sequence (Q9HBA0 whole entry): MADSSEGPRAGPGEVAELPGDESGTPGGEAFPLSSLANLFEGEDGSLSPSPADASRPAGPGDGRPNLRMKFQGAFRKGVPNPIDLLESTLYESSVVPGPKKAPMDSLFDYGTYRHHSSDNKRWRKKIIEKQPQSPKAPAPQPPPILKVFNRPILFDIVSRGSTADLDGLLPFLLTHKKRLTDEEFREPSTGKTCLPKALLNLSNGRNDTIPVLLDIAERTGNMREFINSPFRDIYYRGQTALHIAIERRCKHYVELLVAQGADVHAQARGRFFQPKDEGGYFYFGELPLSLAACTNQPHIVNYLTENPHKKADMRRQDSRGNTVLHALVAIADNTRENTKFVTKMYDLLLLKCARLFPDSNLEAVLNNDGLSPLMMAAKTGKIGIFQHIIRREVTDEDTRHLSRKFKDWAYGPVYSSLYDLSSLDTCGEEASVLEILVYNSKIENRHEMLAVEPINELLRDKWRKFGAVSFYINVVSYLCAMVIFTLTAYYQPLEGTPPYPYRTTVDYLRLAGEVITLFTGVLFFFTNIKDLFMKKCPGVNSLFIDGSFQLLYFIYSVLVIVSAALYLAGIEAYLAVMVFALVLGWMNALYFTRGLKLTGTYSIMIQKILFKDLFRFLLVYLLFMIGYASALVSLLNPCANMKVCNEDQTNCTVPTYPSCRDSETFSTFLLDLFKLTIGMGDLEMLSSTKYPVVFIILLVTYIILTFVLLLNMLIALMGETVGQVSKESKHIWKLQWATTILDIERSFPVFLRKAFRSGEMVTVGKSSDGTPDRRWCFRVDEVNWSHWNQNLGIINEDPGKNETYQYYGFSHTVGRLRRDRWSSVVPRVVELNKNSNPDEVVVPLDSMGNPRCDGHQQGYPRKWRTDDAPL
row,IC50,Compound
1,0.1 to 10 nM,"N#Cc1cc(Cl)cc(-n2cc(CN3C[C@@]4(CCC[C@H](Cn5cnc6ccc(C#N)cc65)C4)OC3=O)nn2)c1 [Example 99, 1-[((5S,7S)-3-{[1-(3-chloro-5-cyanophenyl)-1H-1,2,3-triazol-4-yl]methyl}-2-oxo-1-oxa-3-azaspiro[4.5]dec-7-yl)methyl]-1H-benzimidazole-6-carbonitrile]"
2,0.1 to 10 nM,"N#Cc1ccc2ncn(C[C@H]3CCC[C@]4(C3)CN(Cc3cn(-c5ccnc(C(F)(F)F)c5)nn3)C(=O)O4)c2c1 [Example 100, 1-{[(5S,7S)-2-oxo-3-({1-[2-(trifluoromethyl)-4-pyridinyl]-1H-1,2,3-triazol-4-yl}methyl)-1-oxa-3-azaspiro[4.5]dec-7-yl]methyl}-1H-benzimidazole-6-carbonitrile]"
3,10 to 50 nM,"N#Cc1ccc2ncn(C[C@H]3CCC[C@]4(C3)CN(Cc3cn(-c5cc(F)cc(F)c5)nn3)C(=O)O4)c2c1 [Example 101, 1-[((5S,7S)-3-{[1-(3,5-difluorophenyl)-1H-1,2,3-triazol-4-yl]methyl}-2-oxo-1-oxa-3-azaspiro[4.5]dec-7-yl)methyl]-1H-benzimidazole-6-carbonitrile]"
4,0.1 to 10 nM,"N#Cc1ccc2ncn(C[C@H]3CCC[C@]4(C3)CN(Cc3cn(-c5ccc(C(F)(F)F)cc5)nn3)C(=O)O4)c2c1 [Example 102, 1-{[(5S,7S)-2-oxo-3-({1-[4-(trifluoromethyl)phenyl]-1H-1,2,3-triazol-4-yl}methyl)-1-oxa-3-azaspiro[4.5]dec-7-yl]methyl}-1H-benzimidazole-6-carbonitrile]"
5,50 to 500 nM,"CC(C)n1cc(CN2C[C@@]3(CCC[C@](C)(Cn4cnc5ccc(C#N)cc54)C3)OC2=O)nn1 [Example 104, 1-[((5S,7S)-7-methyl-3-{[1-(1-methylethyl)-1H-1,2,3-triazol-4-yl]methyl}-2-oxo-1-oxa-3-azaspiro[4.5]dec-7-yl)methyl]-1H-benzimidazole-6-carbonitrile]"
6,10 to 50 nM,"C[C@]1(Cn2cnc3ccc(C#N)cc32)CCC[C@]2(CN(Cc3cn(-c4ccccc4)nn3)C(=O)O2)C1 [Example 105, 1-({(5R,7S)-7-methyl-2-oxo-3-[(1-phenyl-1H-1,2,3-triazol-4-yl)methyl]-1-oxa-3-azaspiro[4.5]dec-7-yl}methyl)-1H benzimidazole-6-carbonitrile]"
7,10 to 50 nM,"N#Cc1ccc2ncn(C[C@H]3CCC[C@]4(C3)CN(Cc3cn(-c5cncc(Cl)c5)nn3)C(=O)O4)c2c1 [Example 106, 1-[((5S,7S)-3-{[1-(5-chloro-3-pyridinyl)-1H-1,2,3-triazol-4-yl]methyl}-2-oxo-1-oxa-3-azaspiro[4.5]dec-7-yl)methyl]-1H-benzimidazole-6-carbonitrile]"
8,0.1 to 10 nM,"CC(C)(C#N)c1noc(N2C[C@@]3(CCC[C@](C)(Cn4cnc5ccc(C#N)cc54)C3)OC2=O)c1Cl [Example 107, 1-(((5S,7S)-3-(4-chloro-3-(2-cyanopropan-2-yl)isoxazol-5-yl)-7-methyl-2-oxo-1-oxa-3-azaspiro[4.5]decan-7-yl)methyl)-1H-benzo[d]imidazole-6-carbonitrile]"
9,0.1 to 10 nM,"CC(C)(C)c1noc(N2C[C@@]3(CCC[C@](C)(Cn4cnc5ccc(C#N)cc54)C3)OC2=O)c1Br [Example 108, 1-({(5S,7S)-3-[4-bromo-3-(1,1-dimethylethyl)-5-isoxazolyl]-7-methyl-2-oxo-1-oxa-3-azaspiro[4.5]dec-7-yl}methyl)-1H-benzimidazole-6-carbonitrile]"
10,50 to 500 nM,"COc1ncccc1N1C[C@@]2(CCC[C@](C)(Cn3cnc4ccc(C#N)cc43)C2)OC1=O [Example 109, 1-[{(5S,7S)-7-methyl-3-[2-(methyloxy)-3-pyridinyl]-2-oxo-1-oxa-3-azaspiro[4.5]dec-7-yl}methyl]-1H-benzimidazole-6-carbonitrile]"
11,0.1 to 10 nM,"COc1ccc(N2C[C@@]3(CCC[C@](C)(Cn4cnc5ccc(C#N)cc54)C3)OC2=O)c(OC)n1 [Example 110, 1-({(5S,7S)-3-[2,6-bis(methyloxy)-3-pyridinyl]-7-methyl-2-oxo-1-oxa-3-azaspiro[4.5]dec-7-yl}methyl)-1H-benzimidazole-6-carbonitrile]"
12,10 to 50 nM,"COc1cc(C)c(N2C[C@@]3(CCC[C@H](Cn4cnc5ccc(C#N)cc54)C3)OC2=O)cn1 [Example 111, 1-({(5S,7S)-3-[4-methyl-6-(methyloxy)-3-pyridinyl]-2-oxo-1-oxa-3-azaspiro[4.5]dec-7-yl}methyl)-1H-benzimidazole-6-carbonitrile]"
13,0.1 to 10 nM,"C[C@]1(Cn2cnc3ccc(C#N)cc32)CCC[C@@]2(CN(c3ncc(Cl)cc3Cl)C(=O)O2)C1 [Example 112, 1-(((7S)-3-(3,5-dichloropyridin-2-yl)-7-methyl-2-oxo-1-oxa-3-azaspiro[4.5]decan-7-yl)methyl)-1H-benzo[d]imidazole-6-carbonitrile]"
14,10 to 50 nM,"CCOc1ncc(N2C[C@@]3(CCC[C@](C)(Cn4cnc5ccc(C#N)cc54)C3)OC2=O)cn1 [Example 113, 1-(((5S,7S)-3-(2-ethoxypyrimidin-5-yl)-7-methyl-2-oxo-1-oxa-3-azaspiro[4.5]decan-7-yl)methyl)-1H-benzo[d]imidazole-6-carbonitrile]"
15,0.1 to 10 nM,"C[C@]1(Cn2cnc3ccc(C#N)cc32)CCC[C@@]2(CN(c3ncc(Cl)cc3F)C(=O)O2)C1 [Example 114, 1-(((5S,7S)-3-(5-chloro-3-fluoropyridin-2-yl)-7-methyl-2-oxo-1-oxa-3-azaspiro[4.5]decan-7-yl)methyl)-1H-benzo[d]imidazole-6-carbonitrile]"
16,0.1 to 10 nM,"C[C@]1(Cn2cnc3ccc(C#N)cc32)CCC[C@@]2(CN(c3cnc(C(F)(F)F)cn3)C(=O)O2)C1 [Example 115, 1-(((5S,7S)-7-methyl-2-oxo-3-(5-(trifluoromethyl)pyrazin-2-yl)-1-oxa-3-azaspiro[4.5]decan-7-yl)methyl)-1H-benzo[d]imidazole-6-carbonitrile]"
17,10 to 50 nM,"CC(C)(C)c1ncc(N2C[C@@]3(CCC[C@H](Cn4cnc5ccc(C#N)cc54)C3)OC2=O)cn1 [Example 116, 1-(((5S,7S)-3-(2-(tert-butyl)pyrimidin-5-yl)-2-oxo-1-oxa-3-azaspiro[4.5]decan-7-yl)methyl)-1H-benzo[d]imidazole-6-carbonitrile]"
18,50 to 500 nM,"Cc1cnc(N2C[C@@]3(CCC[C@](C)(Cn4cnc5ccc(C#N)cc54)C3)OC2=O)cn1 [Example 117, 1-(((5S,7S)-7-methyl-3-(5-methylpyrazin-2-yl)-2-oxo-1-oxa-3-azaspiro[4.5]decan-7-yl)methyl)-1H-benzo[d]imidazole-6-carbonitrile]"
19,0.1 to 10 nM,"CCOc1cc(C)c(N2C[C@@]3(CCC[C@](C)(Cn4cnc5ccc(C#N)cc54)C3)OC2=O)cn1 [Example 118, 1-(((5S,7S)-3-(6-ethoxy-4-methylpyridin-3-yl)-7-methyl-2-oxo-1-oxa-3-azaspiro[4.5]decan-7-yl)methyl)-1H-benzo[d]imidazole-6-carbonitrile]"
20,0.1 to 10 nM,"Cc1cc(Cl)ncc1N1C[C@@]2(CCC[C@](C)(Cn3cnc4ccc(C#N)cc43)C2)OC1=O [Example 119, 1-(((5S,7S)-3-(6-chloro-4-methylpyridin-3-yl)-7-methyl-2-oxo-1-oxa-3-azaspiro[4.5]decan-7-yl)methyl)-1H-benzo[d]imidazole-6-carbonitrile]"
21,0.1 to 10 nM,"Cc1cc(Cl)ncc1N1C[C@@]2(CCC[C@H](Cn3cnc4ccc(C#N)cc43)C2)OC1=O [Example 120, 1-(((5S,7S)-3-(6-chloro-4-methylpyridin-3-yl)-2-oxo-1-oxa-3-azaspiro[4.5]decan-7-yl)methyl)-1H-benzo[d]imidazole-6-carbonitrile]"
22,0.1 to 10 nM,"Cc1cc(Cl)cnc1N1C[C@@]2(CCC[C@](C)(Cn3cnc4ccc(C#N)cc43)C2)OC1=O [Example 121, 1-(((5S,7S)-3-(5-chloro-3-methylpyridin-2-yl)-7-methyl-2-oxo-1-oxa-3-azaspiro[4.5]decan-7-yl)methyl)-1H-benzo[d]imidazole-6-carbonitrile]"
23,0.1 to 10 nM,"COc1cc(Cl)ncc1N1C[C@@]2(CCC[C@](C)(Cn3cnc4ccc(C#N)cc43)C2)OC1=O [Example 122, 1-(((5S,7S)-3-(6-chloro-4-methoxypyridin-3-yl)-7-methyl-2-oxo-1-oxa-3-azaspiro[4.5]decan-7-yl)methyl)-1H-benzo[d]imidazole-6-carbonitrile]"
24,0.1 to 10 nM,"COc1cc(Cl)ncc1N1C[C@@]2(CCC[C@H](Cn3cnc4ccc(C#N)cc43)C2)OC1=O [Example 123, 1-(((5S,7S)-3-(6-chloro-4-methoxypyridin-3-yl)-2-oxo-1-oxa-3-azaspiro[4.5]decan-7-yl)methyl)-1H-benzo[d]imidazole-6-carbonitrile]"
25,10 to 50 nM,"Cc1nc(C(F)(F)F)ncc1N1C[C@@]2(CCC[C@H](Cn3cnc4ccc(C#N)cc43)C2)OC1=O [Example 124, 1-(((5S,7S)-3-(4-methyl-2-(trifluoromethyl)pyrimidin-5-yl)-2-oxo-1-oxa-3-azaspiro[4.5]decan-7-yl)methyl)-1H-benzo[d]imidazole-6-carbonitrile]"
26,0.1 to 10 nM,"CCOc1cc(C)c(N2C[C@@]3(CCC[C@H](Cn4cnc5cc(F)c(C#N)cc54)C3)OC2=O)cn1 [Example 125, 1-(((5S,7S)-3-(6-ethoxy-4-methylpyridin-3-yl)-2-oxo-1-oxa-3-azaspiro[4.5]decan-7-yl)methyl)-5-fluoro-1H-benzo[d]imidazole-6-carbonitrile]"
27,0.1 to 10 nM,"COc1nc(C)ccc1N1C[C@@]2(CCC[C@](C)(Cn3cnc4ccc(C#N)cc43)C2)OC1=O [Example 126, 1-(((5S,7S)-3-(2-methoxy-6-methylpyridin-3-yl)-7-methyl-2-oxo-1-oxa-3-azaspiro[4.5]decan-7-yl)methyl)-1H-benzo[d]imidazole-6-carbonitrile]"
28,10 to 50 nM,"COc1cc(C)cnc1N1C[C@@]2(CCC[C@](C)(Cn3cnc4ccc(C#N)cc43)C2)OC1=O [Example 127, 1-(((5S,7S)-3-(3-methoxy-5-methylpyridin-2-yl)-7-methyl-2-oxo-1-oxa-3-azaspiro[4.5]decan-7-yl)methyl)-1H-benzo[d]imidazole-6-carbonitrile]"

# Source: US9187464B2, “TRPV4 antagonists” (GlaxoSmithKline Intellectual Property (No. 2) Limited, priority 2011, dated 2015)
